# Source: patent US20240076297A1, “ADENOSINE A2A AND A2B RECEPTOR DUAL ANTAGONISTS FOR IMMUNO-ONCOLOGY” (Merck Sharp & Dohme LLC, priority 2020, published 2024)
# Legend:
# [1] = target: human A2A adenosine receptor (Homo sapiens (Human), UniProt P29274); experiment: A2A binding affinity using radioligand binding, Method (A); settings: Method (A): filtration radioligand binding, [3H] SCH58261, membranes expressing human A2A
# Text: (§1) Method (A) describes the procedure used to measure A2A binding affinity using radioligand binding. Method (B) describes the procedure used to measure A2A binding affinity using SPA technology. The method used to measure A2B binding affinity is also described below. The method used to determine the A2A IC50 value reported for each compound in the table is indicated next to the reported value. The A2B IC50 value measured using the A2B binding affinity assay is shown in the table next to the compound under the corresponding A2A value.
# The A2A receptor affinity binding assay measured the amount of binding of a tritiated ligand with high affinity for the A2A adenosine receptor to membranes made from HEK293 or CHO cells recombinantly expressing the human A2A adenosine receptor, in the presence of varying concentrations of a compound of the invention. The data were generated using either filtration binding or a homogenous scintillation proximity assay (SPA).
# Method (A): Measurement of A2A Binding Affinity Using Radioligand Binding
# 148 μL (5 μg/mL) membranes (Perkin Elmer, Cat. No. RBHA2aM400UA) and 2 μL compounds of the invention to be tested (test compound) were transferred to individual wells of a 96-well polypropylene assay plate and incubated for 15 to 30 min at room temperature. [^3H] SCH58261 ((7-(2-phenylethyl)-5-amino-2-(2-furyl)-pyrazolo-[4,3-e]-1,2,4-triazolo[1,5-c]pyrimidine)) was diluted in assay buffer (50 mM Tris pH 7.4, 10 mM MgCl2, 0.005% Tween20) to a concentration of 4 nM and 50 μL transferred to each well of the assay plate. To define total and non-specific binding, wells containing 1% DMSO and 1 μM ZM241385 (Tocris Bioscience, Cat. No. 1036) respectively, were also included. The assay plate was incubated at room temperature for 60 min with agitation. Using a FilterMate Harvester® (Perkin Elmer), the contents of the assay plate were filtered through a UniFilter-96® PEI coated plate (Perkin Elmer Cat. No. 6005274 or 6005277). Filtering was achieved by aspirating the contents of the assay plate for 5 sec, then washing and aspirating the contents three times with ice-cooled wash buffer (50 mM Tris-HCl pH 7.4, 150 mM NaCl) and allowing the vacuum manifold to dry the plate for 30 sec. The filter plate was incubated for at least 1 h at 55° C. and allowed to dry. The bottom of the filter plate was sealed with backing tape. 40 μL Ultima Gold™ (Perkin Elmer, Cat. No. 6013329) was added to each well of the filter plate and the top of the plate was sealed with TopSeal-A PLUS® clear plate seal (Perkin Elmer, Cat. No. 6050185). The plate was incubated for at least 20 min, and then the amount of radioactivity remaining in each well was determined using a TopCount® (Perkin Elmer) scintillation counter. After normalization to total and non-specific binding, the percent effect at each compound concentration was calculated. The plot of percent effect versus the log of compound concentration was analyzed electronically using a 4-parameter logistic fit based on the Levenberg-Marquardt algorithm to generate IC50 values.
# [2] = target: human A2B adenosine receptor (Homo sapiens (Human), UniProt P29275); experiment: A2B binding affinity, radioligand filtration binding assay; settings: HEK293 membranes expressing human A2B, tritiated proprietary antagonist
# Text: as §1
# Measurement of A2B Binding Affinity
# The reported affinity of the compounds of the invention for the human A2B adenosine receptor was determined experimentally using a radioligand filtration binding assay. This assay measures the amount of binding of a tritiated proprietary A2B receptor antagonist, in the presence and absence of a compound of the invention, to membranes made from HEK293 cells recombinantly expressing the human A2B adenosine receptor (Perkin Elmer, Cat. No. ES-013-C).
# 148 μL (135 μg/mL) membranes and 2 μL test compounds were transferred to individual wells of a 96-well polypropylene assay plate and incubated for 15 to 30 min at room temperature with agitation. Tritiated radioligand was diluted to a concentration of 14 nM in assay buffer (phosphate buffered saline without Magnesium and Calcium, pH 7.4; GE Healthcare Life Sciences, Cat. No. SH30256.01) and then 50 μL of the solution were transferred to each well of the assay plate. To define total and non-specific binding, wells containing 1% DMSO and 20 μM N-ethylcarboxamidoadenosine (Tocris Bioscience, Cat. No. 1691) respectively, were also included. The wells of the assay plate were incubated at room temperature for 60 min with agitation, then filtered using a FilterMate Harvester® (Perkin Elmer) or similar equipment through a UniFilter-96@ PEI coated plate (Perkin Elmer Cat. No. 6005274 or 6005277). Filtering was achieved by aspirating the contents of the assay plate for 5 sec, then washing and aspirating the contents three times with ice-cooled wash buffer (assay buffer supplemented with 0.0025% Brij58) and allowing the vacuum manifold to dry the plate for 30 sec. The filter plate was incubated for at least 1 h at 55° C. and allowed to dry. The bottom of the filter plate was then sealed with backing tape. 40 μL Ultima Gold™ (Perkin Elmer, Cat. No. 6013329) was added to each well of the filter plate and the top of the plate was sealed with TopSeal-A PLUS® clear plate seal (Perkin Elmer, Cat. No. 6050185). The plates were then incubated for at least 20 min, and then the amount of radioactivity remaining in each well was determined using a TopCount® (Perkin Elmer) scintillation counter. After normalization to total and non-specific binding, the percent effect at each compound concentration was calculated. The plot of percent effect versus the log of compound concentration was analyzed electronically using a 4-parameter logistic fit based on the Levenberg-Marquardt algorithm to generate IC50 values.
# Chain of human A2B adenosine receptor (P29275 whole entry): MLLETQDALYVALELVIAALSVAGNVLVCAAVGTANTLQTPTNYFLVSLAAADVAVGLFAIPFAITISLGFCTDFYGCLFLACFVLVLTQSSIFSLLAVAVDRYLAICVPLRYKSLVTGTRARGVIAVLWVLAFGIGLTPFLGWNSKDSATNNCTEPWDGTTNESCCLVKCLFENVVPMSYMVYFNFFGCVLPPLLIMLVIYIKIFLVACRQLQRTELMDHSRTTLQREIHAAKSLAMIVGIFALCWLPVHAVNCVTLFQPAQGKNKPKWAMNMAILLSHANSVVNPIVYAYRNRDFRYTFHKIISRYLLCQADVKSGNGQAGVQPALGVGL
# Chain of human A2A adenosine receptor (P29274 whole entry): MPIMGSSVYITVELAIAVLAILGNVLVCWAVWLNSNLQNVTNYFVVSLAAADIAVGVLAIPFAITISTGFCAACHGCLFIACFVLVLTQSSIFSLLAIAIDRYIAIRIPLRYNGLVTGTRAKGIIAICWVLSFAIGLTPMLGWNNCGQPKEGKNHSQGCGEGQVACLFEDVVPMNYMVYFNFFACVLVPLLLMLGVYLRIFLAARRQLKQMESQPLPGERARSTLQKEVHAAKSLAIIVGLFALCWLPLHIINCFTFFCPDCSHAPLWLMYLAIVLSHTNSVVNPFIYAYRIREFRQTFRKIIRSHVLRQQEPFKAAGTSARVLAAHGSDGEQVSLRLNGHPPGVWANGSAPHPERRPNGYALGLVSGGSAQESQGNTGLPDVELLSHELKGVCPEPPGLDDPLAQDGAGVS
IC50 [1] [nM],IC50 ([2]; value given with marker (A)) [nM],IC50 ([2]; value given with marker (B)) [nM],SMILES
222,1900,–,"COc1cc2nc(N)n3nc(CCS(C)(=O)=O)nc3c2cc1F [Example 6.4, 9-fluoro-8-methoxy-2-(2-(methylsulfonyl)ethyl)-[1,2,4]triazolo[1,5-c]quinazolin-5-amine]"
9.1,197,–,"COc1cc2nc(N)n3nc(CCS(=O)(=O)C4CC4)nc3c2cc1F [Example 13.14, 2-(2-(cyclopropylsulfonyl)ethyl)-9-fluoro-8-methoxy-[1,2,4]triazolo[1,5-c]quinazolin-5-amine]"
145,–,1070,"COc1cccc2c1nc(N)n1nc([C@H](C)CO)nc21 [Example 17.4, (S)-2-(5-amino-7-methoxy-[1,2,4]triazolo[1,5-c]quinazolin-2-yl)propan-1-ol]"
0.2,9.1,–,"COc1cc(F)cc2c1nc(N)n1nc(COCc3ccc(C(C)(C)O)cc3)nc21 [Example 4.14, 2-(4-(((5-amino-9-fluoro-7-methoxy-[1,2,4]triazolo[1,5-c]quinazolin-2-yl)methoxy)methyl)phenyl)propan-2-ol]"
264,–,2990,"COc1cccc2c1nc(N)n1nc([C@@H](C)CO)nc21 [Example 17.3, (R)-2-(5-amino-7-methoxy-[1,2,4]triazolo[1,5-c]quinazolin-2-yl)propan-1-ol]"
13.9,–,307,"CC[C@@H](O)Cc1nc2c3cccc(OC)c3nc(N)n2n1 [Example 17.2, (R)-1-(5-amino-7-methoxy-[1,2,4]triazolo[1,5-c]quinazolin-2-yl)butan-2-ol]"
0.7,61.4,–,"COc1cc2nc(N)n3nc(CC(C)S(C)(=O)=O)nc3c2cc1F (single isomer, unassigned) [Example 13.2A, (S or R)-9-fluoro-8-methoxy-2-(2-(methylsulfonyl)propyl)-[1,2,4]triazolo[1,5-c]quinazolin-5-amine]"
0.3,973,–,"COc1cccc2c1nc(N)n1nc(CCS(=O)(=O)c3ccc(F)cc3)nc21 [Example 13.4, 2-(2-((4-fluorophenyl)sulfonyl)ethyl)-7-methoxy-[1,2,4]triazolo[1,5-c]quinazolin-5-amine]"
3.1,139,–,"COc1cc(F)cc2c1nc(N)n1nc(CC3CC3c3ccc(C(C)(C)N)cc3)nc21 (single isomer, unassigned) [Example 8.4B, 2-(((1R,2S or 1S,2R)-2-(4-(2-aminopropan-2-yl)phenyl)-cyclopropyl)methyl)-9-fluoro-7-methoxy-[1,2,4]triazolo-[1,5-c]quinazolin-5-amine]"
8.1,1050,–,"COc1cc2nc(N)n3nc(CC(C)S(C)(=O)=O)nc3c2cc1F (single isomer, unassigned) [Example 13.2B, (R or S)-9-fluoro-8-methoxy-2-(2-(methylsulfonyl)propyl)-[1,2,4]triazolo[1,5-c]quinazolin-5-amine]"
0.1,0.6,–,"COc1cccc2c1nc(N)n1nc(COCc3ccc(C(O)(C(F)(F)F)C(F)(F)F)cc3)nc21 [Example 4.1, 2-(4-(((5-amino-7-methoxy-[1,2,4]triazolo[1,5-c]quinazolin-2-yl)methoxy)methyl)phenyl)-1,1,1,3,3,3-hexafluoropropan-2-ol]"
165,1720,–,"CCS(=O)(=O)CCc1nc2c3cc(F)c(OC)cc3nc(N)n2n1 [Example 13.12, 2-(2-(ethylsulfonyl)ethyl)-9-fluoro-8-methoxy-[1,2,4]triazolo[1,5-c]quinazolin-5-amine]"
8.2,535,–,"COc1cccc2c1nc(N)n1nc(CCS(C)(=O)=O)nc21 [Example 6.3, 7-methoxy-2-(2-(methylsulfonyl)ethyl)-[1,2,4]-triazolo[1,5-c]quinazolin-5-amine]"
246,1060,–,"CCS(=O)(=O)CCc1nc2c3ccc(OC)cc3nc(N)n2n1 [Example 13.9, 2-(2-(ethylsulfonyl)ethyl)-8-methoxy-[1,2,4]triazolo-[1,5-c]quinazolin-5-amine]"
0.9,3.1,–,"COc1cccc2c1nc(N)n1nc(CCC3CCc4c(nnn4C4CC(F)(F)C4)C3)nc21 (single isomer, unassigned) [Example 5.3B, (R or S)-2-(2-(1-(3,3-difluorocyclobutyl)-4,5,6,7-tetrahydro-1H-benzo[d][1,2,3]triazol-5-yl)ethyl)-7-methoxy-[1,2,4]triazolo-[1,5-c]quinazolin-5-amine]"
28.8,666,–,"COc1cc(F)cc2c1nc(N)n1nc(CCS(=O)(=O)CC(C)C)nc21 [Example 13.11, 9-fluoro-2-(2-(isobutylsulfonyl)ethyl)-7-methoxy-[1,2,4]triazolo[1,5-c]quinazolin-5-amine]"
6.7,–,214,"COc1cccc2c1nc(N)n1nc(C[C@H](C)O)nc21 [Example 18.3, (S)-1-(5-amino-7-methoxy-[1,2,4]triazolo[1,5-c]quinazolin-2-yl)propan-2-ol]"
1.1,112,–,"COc1cc(F)cc2c1nc(N)n1nc(CCCS(=O)(=O)C3CC3)nc21 [Example 13.18, 2-(3-(cyclopropylsulfonyl)propyl)-9-fluoro-7-methoxy-[1,2,4]triazolo[1,5-c]quinazolin-5-amine]"
4.2,–,3780,"COc1cccc2c1nc(N)n1nc(CS(=O)(=O)c3ccccc3)nc21 [Example 6.6, 7-methoxy-2-((phenylsulfonyl)methyl)-[1,2,4]triazolo-[1,5-c]quinazolin-5-amine]"
15.1,–,209,"COc1cccc2c1nc(N)n1nc(C[C@@H](C)O)nc21 [Example 18.4, (R)-1-(5-amino-7-methoxy-[1,2,4]triazolo[1,5-c]quinazolin-2-yl)propan-2-ol]"
0.8,9.8,–,"COc1cc(F)cc2c1nc(N)n1nc(CCS(=O)(=O)C3CC3)nc21 [Example 13.10, 2-(2-(cyclopropylsulfonyl)ethyl)-9-fluoro-7-methoxy-[1,2,4]triazolo[1,5-c]quinazolin-5-amine]"
107,1080,–,"COc1cc2nc(N)n3nc(CCS(=O)(=O)CC(C)C)nc3c2cc1F [Example 13.16, 9-fluoro-2-(2-(isobutylsulfonyl)ethyl)-8-methoxy-[1,2,4]triazolo[1,5-c]quinazolin-5-amine]"
